{"source": "patent US8933071B2", "about": "“Dimethyl fasudil for inducing polyploidization of megakaryocytes and for treating blood and bone marrow diseases and disorders” (Northwestern University, priority 2008, dated 2015)", "key": {"[1]": {"tested_on": "CD41+ megakaryocyte fraction", "assay": "Polyploidization of primary human megakaryocytes (CD34+ cells cultured with TPO), CD41+ fraction", "format": "cell-based", "details": "CD34+ cells cultured with TPO 12 days, compound added after 9 days", "description": "(§1) FIG. 4 illustrates that DMF induces polyploidization of normal human megakaryocytes and that its activity is restricted to the CD41+ population. Human CD34+ cells were cultured with TPO for 12 days and then fixed and stained with DAPI. DMSO or DMF were added to the culture after 9 days. DNA content was then assessed by flow cytometry. Numbers above the bar indicate % of cells ≧8N.\n(§2) In collaboration with the Broad Institute, a high throughput screen for small molecules was conducted to identify small molecules that preferentially induce polyploidization or differentiation of megakaryocytes. We screened 10,000 compounds from the Broad's extensive collection of small molecules (including known bioactives, kinase and HDAC inhibitors, and natural products) to identify inducers of megakaryocyte polyploidization. The screen was performed in the following manner: 1) 4,000 CMK (human megakaryocytic leukemia) cells were plated into each well of a 384-well plate, 2) 100 n1 of compounds (yielding a final concentration of 10 μM) were pinned into the wells, 3) plates were incubated at 37° C. for 72 hours, 4) cells were fixed and stained with Hoescht, and 5) plates were imaged using an ImageXpressMICRO high content imager with 20× objective. Nine images per well were collected. 6) Data were analyzed using both MetaXpress software and “Cell Profiler,” software designed at MIT and the Broad Institute. […]"}, "[2]": {"tested_on": "non-megakaryocytic cells (CD41-negative)", "assay": "Effect on non-megakaryocytic (CD41-negative) cells in human CD34+ culture", "format": "cell-based", "details": "CD41-negative population", "description": "as §1, §2"}, "[3]": {"tested_on": "megakaryocyte colonies (CFU-MK) from MPD bone marrow", "assay": "CFU-MK assay, bone marrow mononuclear cells from a patient with ET", "format": "cell-based, human", "details": "two doses, 10 days", "description": "FIG. 5 illustrates that the Rho kinase inhibitor dimethylfasudil (DMF) (also know as “ROCK inhibitor”) blocks formation of megakaryocyte colonies (CFU-MK) by bone marrow from patients with Myeloproliferative Disease (MPD).\n(§3) Data with Patient Samples. Two lead compounds were tested on samples from both MPD (myeloproliferative disease) patients and AMKL (acute megakaryocytic leukemia) patients. […] Referring to FIG. 5, bone marrow mononuclear cells from a patient with ET were cultured with two doses of DMF for 10 days. […] Referring to FIG. 8, bone marrow samples from patients with AMKL were cultured in DMSO (control) or DMF (at 5 μM) for 14 days. Colonies were stained with anti-CD41 antibody and visualized by microcopy (not shown). Total numbers of CD41+ megakaryocyte colonies are shown.\nMPDs Patient Specimens. Mononuclear cells from bone marrow of patients were obtained by informed consent from patients at Northwestern Feinberg School of Medicine. […] The cells were stained with 0.4% trypan blue solution for 5 minutes and live cells were counted. […]\n(§4) CFU-MK (Colony forming units-megakarvocvtes) assay. […] Slides were scored microscopically, and megakaryocyte colonies were defined as colonies with at least three megakaryocytes."}, "[4]": {"tested_on": "CD41-cells (all other cell types)", "format": "cell-based, human", "details": "ET patient bone marrow, 5 days", "quoted_text": "Mononuclear cells from bone marrow of patients were obtained by informed consent from patients at Northwestern Feinberg School of Medicine. Mononuclear cells were separated from marrow with Ficoll (GE Healthcare life sciences, Piscataway, N.J.) and resuspended in IMDM (Iscove's Modified Dulbecco's Media) media without serum. The cells were stained with 0.4% trypan blue solution for 5 minutes and live cells were counted. Live cells were assayed in CFU-MK (“Colony forming units-megakaryocytes”) and BFU-E (“Burst forming unit-erythroid”) assays as well as in liquid culture.\nLiquid culture. Marrow cells from ET patients were also cultured in RPMI with 10% FBS in the presence of recombinant human TPO (thrombopoeitin, 50 ng/ml). […] After 5 days, the cells were collected and stained with APC (allophycocyanin) labeled anti-human CD41 antibody (BD Biosciences San Jose, Calif.). The cells were then stained overnight with 1 μg/mL 4′,6-diamidinio-2-phenylindole (DAPI). DNA content of both CD41+ cells and CD41-negative cells was analyzed by utilizing a BD LSRII flow cytometer (BD Biosciences San Jose, Calif.)."}, "[5]": {"tested_on": "human AMKL leukemic cells", "assay": "CFU-MK assay, bone marrow samples from patients with AMKL", "format": "cell-based", "details": "5 μM, 14 days, AMKL patient bone marrow", "description": "FIG. 8 illustrates that DMF blocks the growth of human AMKL leukemic cells. Mononuclear cells from patients with AMKL were cultured in methylcellulose in the presence of either DMSO or 5 μM of DMF.\nas §3\nAMKL Patient Specimens. Frozen bone marrow mononuclear cells of acute megakaryocytic leukemia (AMKL) were obtained from human patients with help from the Children's Oncology Group (COG). After thawing, cells were resuspended in IMDM media without serum. The cells were stained with 0.4% trypan blue solution for 5 minutes and live cells were counted. Live cells were assayed for leukemic potential in a CFU-MK assay (details below).\nas §4"}}, "data": [{"substance": "dimethylfasudil [DMF]", "values": [{"measurement": "polyploidization of primary human megakaryocytes", "setting": "[1]", "value": "potently induced polyploidization"}, {"measurement": "effect on non-megakaryocytic (CD41-negative) cells", "setting": "[2]", "value": "no effect"}, {"measurement": "formation of aberrant megakaryocyte colonies (CFU-MK)", "setting": "[3]", "value": "potently blocked formation"}, {"measurement": "effect on CD41-cells (all other cell types)", "setting": "[4]", "value": "no effect"}, {"measurement": "growth of human leukemia cells (CD41+ megakaryocyte colonies)", "setting": "[5]", "value": "potently blocked growth"}]}]}
